The source made the active and inactive calls. No cut-off for these calls is given here.
Legend:
Type in all cases: cell-based
[1] = molecular target: T1, Vitamin D3 receptor (Homo sapiens) (UniProt P11473); experiment: Agonist activity at human VDR expressed in HEK293 cells co-expressing CMX-GAL4N and TK-MH100x4-LUC assessed as induction of transcriptional activity at 3 uM by beta-galactosidase reporter gene assay relative to 1alpha,25(OH)2VD3
T1 sequence (whole entry): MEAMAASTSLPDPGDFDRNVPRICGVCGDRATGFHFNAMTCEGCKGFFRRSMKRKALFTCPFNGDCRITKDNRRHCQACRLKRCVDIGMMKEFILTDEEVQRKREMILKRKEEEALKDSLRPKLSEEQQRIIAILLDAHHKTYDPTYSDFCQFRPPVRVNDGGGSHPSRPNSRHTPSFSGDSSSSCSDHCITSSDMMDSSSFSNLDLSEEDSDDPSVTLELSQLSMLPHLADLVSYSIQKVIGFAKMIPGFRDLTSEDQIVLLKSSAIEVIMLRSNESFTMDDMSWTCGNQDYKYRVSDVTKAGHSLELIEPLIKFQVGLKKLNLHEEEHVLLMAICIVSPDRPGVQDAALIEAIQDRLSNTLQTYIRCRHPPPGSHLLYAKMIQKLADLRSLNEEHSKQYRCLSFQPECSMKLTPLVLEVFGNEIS

[2] = molecular target: T1, Vitamin D3 receptor (Homo sapiens); experiment: Agonist activity at human VDR expressed in HEK293 cells co-expressing CMX-GAL4N and TK-MH100x4-LUC assessed as induction of transcriptional activity at 10 uM by beta-galactosidase reporter gene assay relative to 1alpha,25(OH)2VD3
[3] = molecular target: T1, Vitamin D3 receptor (Homo sapiens); experiment: Antagonist activity at human VDR expressed in HEK293 cells co-expressing CMX-GAL4N and TK-MH100x4-LUC assessed as inhibition of 1alpha,25(OH)2VD3-induced transcriptional activity up to 10 uM by beta-galactosidase reporter gene assay
Vitamin D3 receptor = molecular target: T2, Vitamin D3 receptor (Homo sapiens, UniProt P11473); experiment: Agonist activity at human VDR expressed in HEK293 cells co-expressing CMX-GAL4N and TK-MH100x4-LUC assessed as induction of transcriptional activity by beta-galactosidase reporter gene assay
T2 sequence (P11473 whole entry): T1 sequence (whole entry)

[4] = molecular target: T1, Vitamin D3 receptor (Homo sapiens); experiment: Agonist activity at VDR in human HL60 cells assessed as induction of cell differentiation at 10 uM by NBT reduction assay; details: HL-60

| Compound | Activity [1] [%] | Activity [2] [%] | inhibition [3] | EC50 (Vitamin D3 receptor; read-out: EC50) [µM] | Activity [4] [%] | EC50 (Vitamin D3 receptor; hek293) |
| --- | --- | --- | --- | --- | --- | --- |
| CCC(CC)(c1ccc(OC[C@@H](O)CO)c(C)c1)c1ccc(OC[C@H](O)C(C)(C)OCCCCCCCCO)c(C)c1 | 77 | 100 | inactive | 1.2 | 37.6 |  |
| CCCCCCOC(C)(C)[C@H](O)COc1ccc(C(CC)(CC)c2ccc(OC[C@@H](O)CO)c(C)c2)cc1C | 19 | 22 | inactive | > 10 |  |  |
| CCC(CC)(c1ccc(OC[C@@H](O)CO)c(C)c1)c1ccc(OC[C@@H](O)C(C)(C)OCCCCCCCCO)c(C)c1 | 40 |  | inactive | > 3 | 18.8 |  |
| CCCCCCOC(C)(C)[C@@H](O)COc1ccc(C(CC)(CC)c2ccc(OC[C@@H](O)CO)c(C)c2)cc1C | 37 | 47 | inactive | 1.5 | 25.1 |  |
| CCCCCCCCCCOC(C)(C)[C@@H](O)COc1ccc(C(CC)(CC)c2ccc(OC[C@@H](O)CO)c(C)c2)cc1C |  |  |  |  |  | Not Active |

Next, values leading:

| Activity [1] [%] | Activity [2] [%] | inhibition [3] | EC50 (Vitamin D3 receptor; read-out: EC50) [µM] | Activity [4] [%] | EC50 (Vitamin D3 receptor; hek293) | Compound |
| --- | --- | --- | --- | --- | --- | --- |
|  |  |  |  |  | Not Active | CCCCCCCCOC(C)(C)[C@@H](O)COc1ccc(C(CC)(CC)c2ccc(OC[C@@H](O)CO)c(C)c2)cc1C |
|  |  |  |  |  | Not Active | CCCCCCCCOC(C)(C)[C@H](O)COc1ccc(C(CC)(CC)c2ccc(OC[C@@H](O)CO)c(C)c2)cc1C |
|  |  |  |  |  | Not Active | CCCCCCCCCCOC(C)(C)[C@H](O)COc1ccc(C(CC)(CC)c2ccc(OC[C@@H](O)CO)c(C)c2)cc1C |

Reference: ChEMBL document CHEMBL3632608, “Effects of alkyl side chains and terminal hydrophilicity on vitamin D receptor (VDR) agonistic activity based on the diphenylpentane skeleton” (Bioorg Med Chem Lett, 2015)
